Source: patent EP4656642A1, “ESTROGEN RECEPTOR PROTEOLYSIS TARGETING CHIMERA COMPOUND AND USE THEREOF” (GAN & LEE PHARM CO., LTD, priority 2023, dated 2024)

How the values were obtained:
Type in all cases: cell-based
T-47D cells = test: Inhibition of cell proliferation in T-47D cells (CCK-8, 6 days); settings: 6 days of treatment, Table 3
Summary of the method: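 T-47D cells at 3,000 cells/well in RPMI 1640 with 10% FBS were exposed to a concentration series of PROTAC compounds for 6 days at 37 °C, 5% CO2. Viability was read by CCK-8, and IC50 values were derived for proliferation inhibition.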

MCF-7 cells = test: Inhibition of cell proliferation of MCF-7 cells (CCK-8, 9 days); settings: treated for 9 days, CCK-8 kit (Table 6)
Summary of the method: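 MCF-7 cells seeded at 800 cells/well in DMEM with 10% FBS, exposed to a range of compound concentrations for 9 days at 37°C, 5% CO2. Viability read by CCK-8; IC50 derived for proliferation inhibition.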

ERα [1] = molecular target: T1, ERα (Homo sapiens, UniProt P03372); test: Degradation of ERα in MCF-7 cells (immunoblotting, 4 h)
T1 sequence (P03372 1-595): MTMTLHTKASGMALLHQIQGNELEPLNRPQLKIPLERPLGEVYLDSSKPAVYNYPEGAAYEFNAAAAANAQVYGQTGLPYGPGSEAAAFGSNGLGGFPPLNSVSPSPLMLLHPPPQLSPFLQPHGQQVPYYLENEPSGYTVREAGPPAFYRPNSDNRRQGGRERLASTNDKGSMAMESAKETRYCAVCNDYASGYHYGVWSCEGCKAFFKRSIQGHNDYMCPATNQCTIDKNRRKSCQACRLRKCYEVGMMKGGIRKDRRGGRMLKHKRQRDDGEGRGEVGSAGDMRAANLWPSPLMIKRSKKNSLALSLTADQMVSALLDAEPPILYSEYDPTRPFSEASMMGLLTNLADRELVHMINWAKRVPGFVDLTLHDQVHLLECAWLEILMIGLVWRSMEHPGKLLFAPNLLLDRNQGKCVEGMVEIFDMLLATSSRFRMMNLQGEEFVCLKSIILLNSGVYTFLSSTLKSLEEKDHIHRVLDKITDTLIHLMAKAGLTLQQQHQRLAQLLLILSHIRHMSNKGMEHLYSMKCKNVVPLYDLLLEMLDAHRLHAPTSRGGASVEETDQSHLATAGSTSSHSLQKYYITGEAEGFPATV
Summary of the method: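 MCF-7 cells treated 4 h at 37°C with compounds at 0.15-1000nM final. ERα in lysates measured by immunoblot, with band grayscale normalized to an internal reference protein. Degradation rate calculated against DMSO-treated control.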

ERα [2] = molecular target: T1, ERα; test: Degradation of ERα in T-47D cells (immunoblotting, 4 h); design: host or cells: T-47D
Summary of the method: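 T-47D cells were treated with compound (final 0.15-1000 nM, DMSO) for 4 h at 37°C, 5% CO2. Cells were lysed in RIPA buffer with protease inhibitor, and ERα protein in the cleared lysate was measured by immunoblotting.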

Structure (SMILES)	IC50 (T-47D cells)	IC50 (MCF-7 cells)	Degradation rate (%) of ERα in MCF-7 cells (ERα [1]; 1nM compound)	Degradation rate (%) of ERα in MCF-7 cells (ERα [1]; 10nM compound)	Degradation rate (%) of ERα in T-47D cells (ERα [2]; 1nM compound)	Degradation rate (%) of ERα in T-47D cells (ERα [2]; 10nM compound)
CCNC(=O)[C@@H]1CC(N2CCC3(CC2)COc2c3ccc3c2CN(C2CCC(=O)NC2=O)C3=O)CCN1C1CC2(CCN(c3ccc([C@@H]4c5ccc(O)cc5CC[C@@H]4c4ccccc4)cc3)CC2)C1 (stereo partly drawn) [H40]	1.42 nM	57.9 nM	69%	84%	56%	86%
O=C1CCC(N2Cc3c(ccc4c3OCC43CCN(C4CCN(C5CC6(CCN(c7ccc([C@@H]8c9ccc(O)cc9CC[C@@H]8c8ccccc8)cc7)CC6)C5)[C@H](C(=O)NC5CC5)C4)CC3)C2=O)C(=O)N1 (stereo partly drawn) [H41]	1.88 nM	5.05 nM	63%	80%	59%	83%
O=C1CCC(N2Cc3c(ccc4c3OCC43CCN(C4CCN(C(=O)C5CCN(c6ccc([C@@H]7c8ccc(O)cc8CC[C@@H]7c7ccccc7)cc6)CC5)CC4F)CC3)C2=O)C(=O)N1 (stereo partly drawn) [H42]	1.32 nM	9.28 nM	49%	77%	37%	73%
O=C1CCC(N2Cc3c(ccc4c3OCC43CCN(C4CCN(C5CC6(CCN(c7ccc([C@@H]8c9ccc(O)cc9CC[C@@H]8c8ccccc8)cc7)CC6)C5)[C@H](C(=O)NC5CCCC5)C4)CC3)C2=O)C(=O)N1 (stereo partly drawn) [H44]	3.74 nM	5.06 nM	36%	73%	53%	85%
O=C1CCC(N2Cc3c(ccc4c3OCC43CCN(C4CCN(C(=O)C5CCN(c6ccc([C@@H]7c8ccc(O)cc8CC[C@@H]7c7ccccc7)cc6)CC5)[C@H](C(=O)N5CCC5)C4)CC3)C2=O)C(=O)N1 (stereo partly drawn) [H45]	1.47 nM	16.2 nM	25%	61%	58%	78%
CN(C(=O)CN1CCC2(CC1)COc1c2ccc2c1CN(C1CCC(=O)NC1=O)C2=O)C1CCC2(CC1)CCN(c1ccc([C@@H]3c4ccc(O)cc4CC[C@@H]3c3ccccc3)cc1)CC2 (stereo partly drawn) [H50]	3.59 nM	9560 nM	32%	71%	11%	63%
C[C@@H]1Cc2c(ccc3[nH]ncc23)C(c2ccc(N3CCC(N4CC[C@@H](N5CCC6(CC5)COc5c6ccc6c5CN(C5CCC(=O)NC5=O)C6=O)[C@@H](F)C4)CC3)cn2)N1CC(F)(F)F (stereo partly drawn) [H57]	26.9 nM	7370 nM	38%	60%	38%	71%
C[C@@H]1Cc2cc(O)ccc2[C@@H](c2c(F)cc(N3CC4(CCC(N5CCC6(CC5)COc5c6ccc6c5CN(C5CCC(=O)NC5=O)C6=O)CC4)C3)cc2F)N1CC(F)(F)F (stereo partly drawn) [I4]	12.7 nM	119 nM	39%	54%	41%	62%
O=C1CCC(N2Cc3cc4c(cc3C2=O)OCC42CCN(CC3CCN(c4ccc([C@@H]5c6ccc(O)cc6CC[C@@H]5c5ccccc5)cc4)CC3)CC2)C(=O)N1 (stereo partly drawn) [J1]	16.7 nM	857 nM	9%	-14%	-6%	-10%
CCN(CC(=O)N1CCC2(CC1)COc1c2ccc2c1CN(C1CCC(=O)NC1=O)C2=O)CC1CCN(c2ccc([C@@H]3c4ccc(O)cc4CC[C@@H]3c3ccccc3)cc2)CC1 (stereo partly drawn) [J12]	1.1 nM	1940 nM	60%	53%	68%	86%
C[C@@H]1Cc2c(ccc3[nH]ncc23)C(c2ccc(N3CCC4(CCN(C(=O)CN5CCC6(CC5)COc5c6ccc6c5CN(C5CCC(=O)NC5=O)C6=O)CC4)CC3)cn2)N1CC(F)(F)F (stereo partly drawn) [J15]	3.49 nM	22000 nM	33%	66%	49%	80%
O=C1CCC(N2Cc3c(ccc4c3OCC43CCN(C(=O)CN(CC4CC4)CC4CCN(c5ccc([C@@H]6c7ccc(O)cc7CC[C@@H]6c6ccccc6)cc5)CC4)CC3)C2=O)C(=O)N1 (stereo partly drawn) [J16]	1.58 nM	2250 nM	17%	47%	35%	68%
O=C1CCC(N2Cc3c(ccc4c3OCC43CCN(CC(=O)N4CC5(CCN(c6ccc([C@@H]7c8ccc(O)cc8CC[C@@H]7c7ccccc7)cc6)CC5)C4)CC3)C2=O)C(=O)N1 (stereo partly drawn) [K5]	1.61 nM	132 nM	30%	58%	73%	85%
O=C1CCC(N2Cc3c(ccc4c3OCC43CCN(C(=O)C4CCN(C5CCN(c6ccc([C@@H]7c8ccc(O)cc8CC[C@@H]7c7ccccc7)cc6)CC5)CC4)CC3)C2=O)C(=O)N1 (stereo partly drawn) [K7]	1.41 nM	10.6 nM	55%	64%	63%	79%
O=C1CCC(N2Cc3c(ccc4c3OCC43CCN(C(=O)CN4CC5(CCN(c6ccc([C@@H]7c8ccc(O)cc8CC[C@@H]7c7ccccc7)cc6)CC5)C4)CC3)C2=O)C(=O)N1 (stereo partly drawn) [K8]	2.07 nM	10.5 nM	44%	64%	67%	85%
O=C1CCC(N2Cc3cc4c(cc3C2=O)OCC42CCN(C3CCC4(CC3)CN(c3ccc([C@@H]5c6ccc(O)cc6CC[C@@H]5c5ccccc5)cc3)C4)CC2)C(=O)N1 (stereo partly drawn) [K17]	1.54 nM	70 nM	14%	35%	23%	66%
CC1CN(C2CCN(c3ccc([C@@H]4c5ccc(O)cc5CC[C@@H]4c4ccccc4)cc3)CC2)CCC1N1CCC2(CC1)COc1c2ccc2c1CN(C1CCC(=O)NC1=O)C2=O (stereo partly drawn) [K19]	5.34 nM	48.6 nM	32%	63%	21%	56%
CC1CN(C2CC3(CCN(c4ccc([C@@H]5c6ccc(O)cc6CC[C@@H]5c5ccccc5)cc4)CC3)C2)CCC1N1CCC2(CC1)COc1c2ccc2c1CN(C1CCC(=O)NC1=O)C2=O (stereo partly drawn) [K20]	2.59 nM	19.6 nM	37%	70%	4%	44%
CC1CN(C(=O)C2CCN(c3ccc(C4c5ccc(O)cc5CCC4c4ccccc4)cc3)CC2)CCC1N1CCC2(CC1)COc1c2ccc2c1CN(C1CCC(=O)NC1=O)C2=O (stereo not drawn) [K23]	1.04 nM	5.67 nM	57%	78%	61%	86%
O=C1CCC(N2C(=O)c3ccc4c(c3C2=O)OCC42CCN(C(=O)CN3CCC4(CCN(c5ccc([C@@H]6c7ccc(O)cc7CC[C@@H]6c6ccccc6)cc5)CC4)C3)CC2)C(=O)N1 (stereo partly drawn) [K24]	1.44 nM	32.5 nM	31%	46%	48%	72%
